In PMC12676778, “Long-tailed class I myosins rely on tail-mediated phosphoinositide recognition for specific membrane recruitment” (Cell Communication and Signaling : CCS, 2025):

Legend:
[1] = target: T1, Myosin-1D-tail (Dictyostelium discoideum, UniProt P34109); assay: liposome co-sedimentation, YFP fluorescence of supernatant; type: binding; details: PolyPIPosomes (5% PIP, 95% PE + PC), accessible lipid; 10 mM Tris pH 7.5, 100 mM NaCl, 1 mM EGTA, room temperature
T1 construct: gene myoD; tail fragment (TH1, SH3, TH2), residues 717-1113; N-terminal GST and/or C-terminal YFP tags kept; E. coli Rosetta pLysS
T1 sequence (P34109 717-1109): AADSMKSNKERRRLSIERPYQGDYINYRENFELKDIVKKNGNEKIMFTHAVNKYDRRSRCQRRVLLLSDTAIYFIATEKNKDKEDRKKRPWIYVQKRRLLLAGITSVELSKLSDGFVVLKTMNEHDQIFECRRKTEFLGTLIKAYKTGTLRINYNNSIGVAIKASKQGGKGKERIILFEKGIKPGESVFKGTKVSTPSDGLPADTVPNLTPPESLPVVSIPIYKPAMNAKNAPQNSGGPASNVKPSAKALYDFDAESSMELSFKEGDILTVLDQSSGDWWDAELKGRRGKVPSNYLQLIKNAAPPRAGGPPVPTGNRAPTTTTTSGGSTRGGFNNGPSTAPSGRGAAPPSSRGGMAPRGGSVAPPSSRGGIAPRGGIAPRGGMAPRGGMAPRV
Source text: liposome co-sedimentation, YFP fluorescence of supernatant on Myosin-1D-tail

[2] = target: T2, Myosin-1C-tail (Dictyostelium discoideum, UniProt P42522); assay: as above; type: binding; details: PolyPIPosomes (5% PIP, 95% PE + PC), accessible lipid; 10 mM Tris pH 7.5, 100 mM NaCl, 1 mM EGTA, room temperature
T2 construct: gene myoC; GST and/or YFP tags kept; E. coli Rosetta pLysS
T2 sequence (P42522 699-1182 limits assumed): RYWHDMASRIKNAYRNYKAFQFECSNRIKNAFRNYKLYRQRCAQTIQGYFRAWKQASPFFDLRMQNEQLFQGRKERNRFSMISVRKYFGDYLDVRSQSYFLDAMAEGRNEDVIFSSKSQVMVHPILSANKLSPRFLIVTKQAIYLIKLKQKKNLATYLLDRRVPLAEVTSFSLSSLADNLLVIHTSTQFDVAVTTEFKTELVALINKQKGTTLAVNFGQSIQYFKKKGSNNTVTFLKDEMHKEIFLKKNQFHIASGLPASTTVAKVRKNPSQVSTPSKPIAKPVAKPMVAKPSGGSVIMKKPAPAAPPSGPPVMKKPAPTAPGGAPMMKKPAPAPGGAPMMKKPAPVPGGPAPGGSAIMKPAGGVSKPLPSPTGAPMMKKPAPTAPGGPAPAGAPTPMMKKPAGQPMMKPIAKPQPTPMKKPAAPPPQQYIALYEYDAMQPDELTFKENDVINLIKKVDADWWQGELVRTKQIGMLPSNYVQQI
Source text: liposome co-sedimentation, YFP fluorescence of supernatant on Myosin-1C-tail

[3] = test system: Dictyostelium cells; assay: Myosin-1 localization in LY294002-treated (PI(3,4,5)P3-depleted) cells during endocytosis, confocal imaging; type: cell-based, Dictyostelium discoideum; details: 20 µM, starving cells
Protocol: Microtubule depolymerization rates were quantified by measuring individual microtubule length reduction over time using Andor Solis software. Cellular localization of fluorescently tagged myosins and time-lapse imaging were performed on an inverted Leica TCS SP2 AOBS confocal microscope and a Leica DMi8 M system equipped with a 63×/1.4 NA oil immersion objective. Bright-field fluorescence microscopy employed an Olympus IX81 inverted microscope with a 60×/1.49 NA oil immersion lens (ApoN, Olympus). For imaging, cells were seeded on glass-bottom dishes (Ibidi), washed twice with MES buffer (20 mM MES, pH 6.8, 0.2 mM CaCl₂, 2 mM MgCl₂), and maintained in this buffer during acquisition. Phagocytic uptake assays were performed following a 2-hour starvation, after which heat-killed yeast particles were added and time-lapse images recorded. […] Image processing was performed using Leica Confocal Software, and quantitative analysis was conducted with ImageJ (NIH, Bethesda, MD, USA). Fluorescence intensity profiles were obtained by drawing lines along the regions of the cups, as illustrated in Fig. 5. Fluorescence data were normalized to the maximum intensity and interpolated using the interpolation algorithm in Origin to account for variations in cup length. Frames showing association of myosin-1C or myosin-1D with the cups were quantified. […]

[4] = target: T3, Myosin-1B-tail (Dictyostelium discoideum, UniProt P34092); assay: liposome co-sedimentation, YFP fluorescence of supernatant; type: binding; details: PolyPIPosomes (5% PIP, 95% PE + PC), accessible lipid; 10 mM Tris pH 7.5, 100 mM NaCl, 1 mM EGTA, room temperature
T3 construct: gene myoB; tail fragment (TH1, TH2, SH3), residues 717-1111; N-terminal GST and/or C-terminal YFP tags kept; E. coli Rosetta pLysS
T3 sequence (P34092 717-1111): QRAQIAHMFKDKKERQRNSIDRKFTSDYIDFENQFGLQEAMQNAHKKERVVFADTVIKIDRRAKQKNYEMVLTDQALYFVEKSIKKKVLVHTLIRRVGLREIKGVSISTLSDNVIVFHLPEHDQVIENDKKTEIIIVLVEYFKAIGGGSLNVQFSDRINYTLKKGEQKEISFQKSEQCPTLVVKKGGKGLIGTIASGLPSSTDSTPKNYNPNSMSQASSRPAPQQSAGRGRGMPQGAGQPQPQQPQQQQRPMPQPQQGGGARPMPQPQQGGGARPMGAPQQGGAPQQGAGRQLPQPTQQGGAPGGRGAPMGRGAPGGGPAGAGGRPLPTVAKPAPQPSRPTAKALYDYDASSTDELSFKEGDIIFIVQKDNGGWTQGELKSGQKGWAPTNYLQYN
Source text: liposome co-sedimentation, YFP fluorescence of supernatant on Myosin-1B-tail

Molecule | Kd [1] [nM] | Kd [2] [nM] | cortical actin dynamics and association of actin with the early endosome [3] | localization of myosin-1C and myosin-1D with endocytic cups and endosomal membranes [3] | Kd [4] [nM]
PI(4)P | 1200 ± 200 | 400 ± 100 |  |  | 
O=c1cc(N2CCOCC2)oc2c(-c3ccccc3)cccc12 [LY294002] |  |  | did not disrupt | almost fully abolished | 
PI(3,4)P2 |  |  |  |  | 2200 ± 400
PI(3,4,5)P3 | 300 ± 40 | 2500 ± 300 |  |  | 
PI(4,5)P2 | 700 ± 100 |  |  |  | 
PI(3)P | 1700 ± 300 | 4000 ± 300 |  |  | 
PI(3,5)P2 | 800 ± 100 | 600 ± 100 |  |  | 
PI(5)P |  | 500 ± 100 |  |  | 7700 ± 600
